Measurements from publication PMC11892739, “Site-specific molecular glues for the 14-3-3/Tau pS214 protein–protein interaction via reversible covalent imine tethering” (RSC Medicinal Chemistry, 2025).

Target: T1, 14-3-3ζ/Raptor peptide (Homo sapiens, UniProt P63104)
T1 construct: made in house; host or cells: NiCo21 (DE3) E. coli
Assay: FA peptide screen, 14-3-3ζ titration to client peptide and compound: Raptor
Type: binding
Details: 250 μM compound, 100 nM peptide; +1 Tyr
Description: Since the hub protein 14-3-3 binds to hundreds of phosphoprotein partners, selectivity of PPI stabilization is a major challenge. The interplay of chemical reactivity, and the topology and functionality of the composite binding pocket shaped by 14-3-3 and Tau potentially provide entries towards selective stabilization. […] Here, 14-3-3ζ was titrated to a constant concentration of client peptide (100 nM) and compound (250 μM) to determine the SF250μM values for the particular 14-3-3 PPI. A variety of 14-3-3 binding proteins was represented in this client panel whereby the size and hydrophobicity of the +1 amino acid were varied. […]
chromatography (HisTrap high performance cartridges, Cytiva). Typically two 5 mL columns were used for a 2 L culture in which the lysate was loaded on the column, washed with 10 CV wash buffer (50 mM Hepes, pH 8.0, 300 mM NaCl, 25 mM imidazole, 2 mM βME), and eluted with several fractions (2-4 CV) of elution buffer (50 mM Hepes, pH 8.0, 300 mM NaCl, 250 mM imidazole, 2 mM βME). […] Dialyzed protein was concentrated to ∼40 mg/mL, analyzed by Q -Tof LC/MS, and aliquots were flash -frozen for storage at −80 °C. […] Fractions containing the 14 -3-3 protein were pooled and concentrated to ∼60 mg/mL, analyzed Q -Tof LC/MS, and aliquots were flash -frozen for storage at −80°C.
Fluorescence Anisotropy – compound titration […]

T1 sequence (P63104 whole entry, other chains not shown): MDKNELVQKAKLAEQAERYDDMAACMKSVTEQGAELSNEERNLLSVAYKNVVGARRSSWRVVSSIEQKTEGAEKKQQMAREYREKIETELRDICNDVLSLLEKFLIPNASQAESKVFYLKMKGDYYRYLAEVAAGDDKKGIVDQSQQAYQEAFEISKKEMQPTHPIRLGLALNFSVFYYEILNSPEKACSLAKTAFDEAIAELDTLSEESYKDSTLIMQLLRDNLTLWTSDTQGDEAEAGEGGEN

- stabilization of 14-3-3/Raptor peptide (in words): no significant stabilization
Structure (SMILES): CCc1ccc(-c2nccn2-c2ccc(C=O)c(Br)c2)cc1 [Compound 18]
